Data on 4 compounds can be found in patent publication US4224333A, “Antihypertensive 2H-indol-2-ones” (Roussel Uclaf, priority 1978, dated 1980).

Where a name gives a salt, the structure may show the parent alone.

Series [1] relates to spontaneous hypertendus male rats of the Okamto strain. In words: Antihypertensive activity in spontaneously hypertensive rats, oral (tail arterial pressure). The format is in vivo, rat. Particulars: 50 mg/kg oral, hydrochloride form; for % Variation of arterial pressure 1 hour after administration: 1 h on first day; for % Variation of arterial pressure 4 hours after administration: 4 h on first day; for % Variation of arterial pressure, 10th day: 24 h after last administration. The procedure:
The arterial pressure was measured before and after the said administration on the rat's tail with a pneumatic collar connected to an electronic translator of pressure and the results of Table II compare the initial arterial pressure with the arterial pressure 1,4 hours of the first day and 24 hours after the last administration.

Series [2] has as its system male rats of the Sprague Dawley S.P.F. strain. In words: Hypotensive activity (carotid arterial pressure) in anesthetized rats, intravenous. It counts as in vivo, rat. Particulars: 1 mg/kg i.v., hydrochloride form. The procedure:
The hypotensive activity was determined on groups of male rats of the Sprague Dawley S.P.F. strain weighing about 300 g which had been anesthesized with an intraveinous administration of 50 mg/kg of nembutal. The test products in their hydrochloride form were administered intraveinously in the jugular vein and the carotidiene arterial pressure was measured before and after the said administration. The variations between the initial arterial pressure and the pressure after the administration was determined as well as the time of duration of the activity and the results are reported in Table I.

A short description of series [3]: Acute toxicity (LD50) in mice, intraperitoneal. Conditions: mouse, in vivo, ip, suspension in carboxymethyl cellulose, observed one week. The procedure:
The acute toxicity of the products was determined on groups of 10 mice weighing between 18 and 22 g and the products were intraperitoneally administered in a suspension in carboxymethyl cellulose.

The mark [4] stands for this setting: test was for 3 days administration.

With `CN1C(=O)C(C2CCN(C[C@H](O)[C@H]3COc4ccccc4O3)CC2)c2ccccc21` (relative stereo) [Example 4, (dl) erythro 1,3-dihydro-3-{1-[2-(2,3-dihydro-1,4-benzodioxin-2-yl)-2-hydroxyethyl]-piperidin-4-yl}-1-methyl-2H-indol-2-one hydrochloride], the “% Variation of arterial pressure 1 hour after administration” value (from here on “% Variation of arterial pressure 1 hour”) in series [1] (setting [4]) is listed as -23%. Further, in series [1] (setting [4]), the “% Variation of arterial pressure 4 hours after administration” value (from here on “% Variation of arterial pressure 4 hours”) is listed as -31%. Further, in series [1] (setting [4]), the “% Variation of arterial pressure, 10th day” value (shortened to “% Variation … 10th day”) was -16%. Moreover, the “% change in arterial pressure” value is on record as -28% in series [2] (at 1 min), -23% in series [2] (at 5 min), -26% in series [2] (at 10 min) and -24% in series [2] (at 30 min). Moreover, the 50% lethal dose (LD50) – broadly, the dose expected to kill half of the subjects tested – at 168 h in series [3] was around 200 mg/kg.
On to `O=C1Nc2ccccc2C1C1CCN(C[C@H](O)[C@@H]2COc3ccccc3O2)CC1` (relative stereo) [Example 3, (dl) threo 1,3-dihydro-3-{1-[2-(2,3-dihydro-1,4-benzodioxin-2-yl)-2-hydroxyethyl]-piperidin-4-yl}-2H-indol-2-one hydrochloride], for which the results for the “% change in arterial pressure” value in series [2] (at 1 min) and in series [2] (at 15 min) were -20% and -10%, respectively. Besides, in series [3], the LD50 at 168 h was around 125 mg/kg.
Take `Cl.O=C1Nc2ccccc2C1C1CCN(CC(O)C2COc3ccccc3O2)CC1` (centres unmarked) [Example 1, 3-{1-[2-(2,3-dihydro-1,4-benzodioxin-2-yl)-2-hydroxyethyl]-piperidin-4-yl}-1,3-dihydro-2H-indol-2-one hydrochloride]: in series [1] (9 days administration), the “% Variation of arterial pressure 1 hour” value is on record as -29%; the “% Variation of arterial pressure 4 hours” value is -27%; the “% Variation … 10th day” value was -8%. Moreover, the “% change in arterial pressure” value in series [2] (at 1 min) was -20%. In series [2] (at 45 min), the “% change in arterial pressure” value is given as -10%. The LD50 at 168 h in series [3] was around 150 mg/kg.
`O=C1Nc2ccccc2C1C1CCN(C[C@H](O)[C@H]2COc3ccccc3O2)CC1` (relative stereo) [Example 2, (dl) erythro 1,3-dihydro-3-{1-[2-(2,3-dihydro-1,4-benzodioxin-2-yl)-2-hydroxyethyl]-piperidin-4-yl}-2H-indol-2-one hydrochloride]: in series [1] (9 days administration), the “% Variation of arterial pressure 1 hour” value is reported as -23%; the “% Variation of arterial pressure 4 hours” value was -22%; the “% Variation … 10th day” value is reported as -9%. Further, the “% change in arterial pressure” value in series [2] (at 5 min) is listed as -30%. Moreover, the “% change in arterial pressure” value in series [2] (at 60 min) is on record as -20%. In series [3], this compound returned an LD50 at 168 h of around 125 mg/kg.
